Data reported in PMC10746543, “Design principles for cyclin K molecular glue degraders” (Nature Chemical Biology, 2023).
Where “and” joins values, the source holds several entries; their conditions need not be identical. Identical values can stand only once. Like-named read-outs stand apart in the source and are kept apart here.

Legend:
CDK12–cyclin K and DDB1 = molecular target: T1, CDK12–cyclin K and DDB1 (Homo sapiens, UniProt Q16531+Q9NYV4, K965R); test: TR-FRET ternary complex formation assay (compound titration); type: binding
T1 construct: His6–CDK12 (a.a. 713–1,052); full-length or beta-propeller B domain deletion (ΔBPB: a.a. 396–705 deleted) constructs of His6–DDB1ΔBPB, StrepII–Avi–DDB1, or His6–Spy–DDB1; made in house; host or cells: Trichoplusia ni High Five insect cells (baculovirus)
Method in brief: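 Delayed (70 μs) time-resolved read; FRET computed as 520 nm over 490 nm emission.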

CDK2–cyclin A = molecular target: T2, CDK2–cyclin A (Homo sapiens, UniProt P24941); test: Lanthascreen kinase binding assay, CDK2; settings: for Lanthascreen signal, sheet CDK2: raw replicates, experiment r36-r46
T2 construct: purchased Thermo Fisher
Procedure: (§1) Lanthascreen experiments were performed using commercially available reagents (Thermo Fisher) and according to the manufacturer’s instructions.

CDK9–cyclin T = molecular target: T3, CDK9–cyclin T (Homo sapiens, UniProt P50750); test: Lanthascreen kinase binding assay, CDK9; settings: for Lanthascreen TR-FRET signal (raw ratio), sheet CDK9: third titration set (r25), duplicates
T3 construct: purchased Thermo Fisher
Procedure: as §1

HEK293T cells = test: Drug sensitivity assay (CellTiter-Glo viability) with or without MLN4924 pretreatment; type: cell-based, human; settings: Supplementary Table 2
Method in brief: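 Viability of HEK293T–Cas9 cells was compared after 3-day drug treatment with or without 100 nM MLN4924 pretreatment (2 h, versus DMSO). Values are CellTiter-Glo signals relative to DMSO controls.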

CDK12–cyclin K = CDK12–cyclin K (Homo sapiens, UniProt Q9NYV4); test: Lanthascreen kinase binding assay, CDK12; settings: for Lanthascreen raw signal, sheet CDK12: series r37, duplicates
Procedure: as §1

[1] = tested on: cyclin K–eGFP degradation reporter; test: Cyclin K reporter stability analysis (dual-color cyclin K–eGFP reporter); type: cell-based, human; settings: source data sheet correlations; read-out: DC50
Method in brief: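 Readout was the eGFP-to-mCherry geometric-mean ratio by flow cytometry, normalized to three DMSO controls, after 5 h drug exposure. Cells used were HEK293T–Cas9 expressing the dual-colour cyclin K–eGFP degradation reporter.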

Sequence of CDK12–cyclin K (Q9NYV4 713-1052): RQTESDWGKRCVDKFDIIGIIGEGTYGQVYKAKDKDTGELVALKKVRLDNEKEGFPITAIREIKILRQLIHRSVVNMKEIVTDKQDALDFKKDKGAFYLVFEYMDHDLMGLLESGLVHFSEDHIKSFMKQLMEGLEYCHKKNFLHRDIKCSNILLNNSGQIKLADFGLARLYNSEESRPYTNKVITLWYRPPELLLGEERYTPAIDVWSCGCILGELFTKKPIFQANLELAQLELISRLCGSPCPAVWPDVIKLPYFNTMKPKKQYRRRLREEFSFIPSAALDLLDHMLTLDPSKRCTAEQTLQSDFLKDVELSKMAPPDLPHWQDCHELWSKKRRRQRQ
Sequence of CDK12–cyclin K (O75909 1-267 partner limits assumed): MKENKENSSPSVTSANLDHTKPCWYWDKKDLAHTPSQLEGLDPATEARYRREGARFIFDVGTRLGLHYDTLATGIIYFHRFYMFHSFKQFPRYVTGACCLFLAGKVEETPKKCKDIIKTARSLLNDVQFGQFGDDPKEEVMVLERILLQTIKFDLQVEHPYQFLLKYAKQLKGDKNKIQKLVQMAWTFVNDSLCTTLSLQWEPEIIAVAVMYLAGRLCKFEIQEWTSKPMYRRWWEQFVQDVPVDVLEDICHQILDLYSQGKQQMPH
T1 sequence (Q9NYV4 713-1052 K965R): as the sequence (Q9NYV4 713-1052) above, with K253R counted along it
T1 sequence (O75909 1-267 partner): as the sequence (O75909 1-267 partner limits assumed) above
T1 sequence (Q16531 whole entry): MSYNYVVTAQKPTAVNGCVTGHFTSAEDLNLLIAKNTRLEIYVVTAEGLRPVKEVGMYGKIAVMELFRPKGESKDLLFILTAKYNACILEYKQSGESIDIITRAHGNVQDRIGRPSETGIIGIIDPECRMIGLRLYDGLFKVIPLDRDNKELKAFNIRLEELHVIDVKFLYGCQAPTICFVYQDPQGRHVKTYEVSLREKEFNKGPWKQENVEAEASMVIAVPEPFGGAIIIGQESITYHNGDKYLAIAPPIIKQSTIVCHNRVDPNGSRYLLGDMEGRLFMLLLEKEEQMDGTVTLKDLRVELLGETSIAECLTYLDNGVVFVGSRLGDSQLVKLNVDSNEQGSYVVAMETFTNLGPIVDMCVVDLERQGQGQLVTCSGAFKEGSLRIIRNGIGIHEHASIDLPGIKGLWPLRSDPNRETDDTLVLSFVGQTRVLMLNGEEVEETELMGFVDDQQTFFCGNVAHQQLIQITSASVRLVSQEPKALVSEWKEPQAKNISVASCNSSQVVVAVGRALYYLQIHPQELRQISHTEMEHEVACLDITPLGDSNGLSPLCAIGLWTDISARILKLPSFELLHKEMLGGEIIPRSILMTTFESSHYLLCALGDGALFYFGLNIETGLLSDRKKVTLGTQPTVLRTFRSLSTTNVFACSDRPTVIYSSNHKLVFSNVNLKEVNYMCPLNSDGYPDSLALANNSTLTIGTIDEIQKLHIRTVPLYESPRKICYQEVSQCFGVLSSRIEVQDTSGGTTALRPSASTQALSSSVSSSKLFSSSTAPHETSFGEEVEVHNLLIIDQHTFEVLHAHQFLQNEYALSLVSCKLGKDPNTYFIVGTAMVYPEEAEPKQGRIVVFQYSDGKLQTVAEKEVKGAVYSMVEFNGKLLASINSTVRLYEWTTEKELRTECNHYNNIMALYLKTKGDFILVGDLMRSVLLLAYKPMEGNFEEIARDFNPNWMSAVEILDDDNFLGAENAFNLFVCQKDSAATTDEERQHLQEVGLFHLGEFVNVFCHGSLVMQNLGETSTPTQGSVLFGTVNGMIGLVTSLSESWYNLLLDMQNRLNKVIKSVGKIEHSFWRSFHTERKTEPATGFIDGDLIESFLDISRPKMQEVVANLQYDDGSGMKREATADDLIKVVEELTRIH
T3 sequence (P50750 whole entry): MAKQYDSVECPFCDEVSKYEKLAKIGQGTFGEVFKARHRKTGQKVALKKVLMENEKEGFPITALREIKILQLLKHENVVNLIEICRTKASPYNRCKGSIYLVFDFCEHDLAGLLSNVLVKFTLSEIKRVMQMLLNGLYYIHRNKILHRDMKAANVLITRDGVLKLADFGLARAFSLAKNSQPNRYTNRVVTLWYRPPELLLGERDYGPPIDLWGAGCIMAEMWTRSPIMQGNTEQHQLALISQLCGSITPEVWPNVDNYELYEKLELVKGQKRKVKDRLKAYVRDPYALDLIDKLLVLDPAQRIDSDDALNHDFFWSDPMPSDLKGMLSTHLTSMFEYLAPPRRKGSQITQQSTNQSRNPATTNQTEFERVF
T3 sequence (O60563 whole entry partner): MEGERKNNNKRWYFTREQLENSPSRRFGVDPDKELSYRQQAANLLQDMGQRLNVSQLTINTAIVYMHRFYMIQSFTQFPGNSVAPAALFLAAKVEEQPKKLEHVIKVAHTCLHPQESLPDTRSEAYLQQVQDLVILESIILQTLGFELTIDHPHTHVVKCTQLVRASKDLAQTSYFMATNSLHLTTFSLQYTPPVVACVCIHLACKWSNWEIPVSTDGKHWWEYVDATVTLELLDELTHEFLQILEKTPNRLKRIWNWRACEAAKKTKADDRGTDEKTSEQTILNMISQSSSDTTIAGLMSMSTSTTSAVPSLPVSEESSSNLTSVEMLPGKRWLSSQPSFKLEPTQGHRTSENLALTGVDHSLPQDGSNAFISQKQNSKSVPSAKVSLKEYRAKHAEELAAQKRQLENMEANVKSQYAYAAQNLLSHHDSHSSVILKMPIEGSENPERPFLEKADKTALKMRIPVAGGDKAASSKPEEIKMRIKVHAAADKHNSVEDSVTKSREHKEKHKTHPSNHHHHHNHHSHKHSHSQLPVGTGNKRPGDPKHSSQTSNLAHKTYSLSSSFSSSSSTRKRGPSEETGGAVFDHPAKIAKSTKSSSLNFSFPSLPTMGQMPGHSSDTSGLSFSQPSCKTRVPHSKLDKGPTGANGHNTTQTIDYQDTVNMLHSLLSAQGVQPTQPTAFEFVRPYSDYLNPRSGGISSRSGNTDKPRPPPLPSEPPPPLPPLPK

TR-FRET signal at compound concentration 0.468 nM (CDK12–cyclin K and DDB1; compound concentration 0.468 nM, raw replicate titration data): 0.2612 and 0.2579 and 0.218 and 0.2096
TR-FRET signal at compound concentration 2.16 nM (CDK12–cyclin K and DDB1; compound concentration 2.16 nM, raw replicate titration data): 0.3357 and 0.3419 and 0.2765 and 0.3174
TR-FRET signal at compound concentration 3.6 nM (CDK12–cyclin K and DDB1; compound concentration 3.6 nM, raw replicate titration data): 0.4892 and 0.5148 and 0.5183 and 0.5347
TR-FRET signal at compound concentration 7.92001 nM (CDK12–cyclin K and DDB1; compound concentration 7.92001 nM, raw replicate titration data): 0.8316 and 0.8843 and 0.9885 and 1.068
TR-FRET signal at compound concentration 15.84 nM (CDK12–cyclin K and DDB1; compound concentration 15.84 nM, raw replicate titration data): 1.474 and 1.574 and 1.714 and 1.959
TR-FRET signal at compound concentration 30.96 nM (CDK12–cyclin K and DDB1; compound concentration 30.96 nM, raw replicate titration data): 2.47 and 2.714 and 3.094 and 3.238
TR-FRET signal at compound concentration 62.6401 nM (CDK12–cyclin K and DDB1; compound concentration 62.6401 nM, raw replicate titration data): 3.3967 and 3.4513 and 3.77 and 3.733
TR-FRET signal at compound concentration 125.28 nM (CDK12–cyclin K and DDB1; compound concentration 125.28 nM, raw replicate titration data): 3.673 and 3.6963 and 3.89 and 3.859
TR-FRET signal at compound concentration 244.8 nM (CDK12–cyclin K and DDB1; compound concentration 244.8 nM, raw replicate titration data): 3.796 and 3.869 and 3.911 and 3.923
TR-FRET signal at compound concentration 993.601 nM (CDK12–cyclin K and DDB1; compound concentration 993.601 nM, raw replicate titration data): 3.806 and 3.925 and 3.935 and 3.945
TR-FRET signal at compound concentration 2001.6 nM (CDK12–cyclin K and DDB1; compound concentration 2001.6 nM, raw replicate titration data): 3.846 and 3.958 and 4 and 4.014
EC50 (CDK12–cyclin K and DDB1; in vitro complex formation, 50 nM CDK12–cyclin K, 100 nM DDB1, text and figures, read-out: TR-FRET EC50): 19 ± 1 nM
EC50 (CDK12–cyclin K and DDB1; sheet MOESM7, read-out: log TR-FRET EC50 (converted)): 19.3 nM
EC50 (CDK12–cyclin K and DDB1; source data sheet correlations, read-out: TR-FRET EC50): 19.3 nM
Lanthascreen signal, sheet CDK2 (CDK2–cyclin A; Compound 0.038147 nM): 0.01361 and 0.01332
Lanthascreen signal, sheet CDK2 (CDK2–cyclin A; Compound 0.152588 nM): 0.01367 and 0.01361
Lanthascreen signal, sheet CDK2 (CDK2–cyclin A; Compound 0.610352 nM): 0.01456 and 0.01463
Lanthascreen signal, sheet CDK2 (CDK2–cyclin A; Compound 9.76563 nM): 0.01461 and 0.01423
Lanthascreen signal, sheet CDK2 (CDK2–cyclin A; Compound 39.0625 nM): 0.01375 and 0.01404
Lanthascreen signal, sheet CDK2 (CDK2–cyclin A; Compound 156.25 nM): 0.01392 and 0.01367
Lanthascreen signal, sheet CDK2 (CDK2–cyclin A; Compound 625 nM): 0.01433 and 0.01409
Lanthascreen signal, sheet CDK2 (CDK2–cyclin A; Compound 2500 nM): 0.01378 and 0.01394
Lanthascreen signal, sheet CDK2 (CDK2–cyclin A; Compound 10000 nM): 0.01296 and 0.01217
IC50 (CDK2–cyclin A; Lanthascreen, average, Extended Data Fig. 8, read-out: CDK2 IC50): > 10000 nM
IC50 (CDK2–cyclin A; Supplementary Table 2, read-out: Lanthascreen IC50 [nM] CDK2): > 10000 nM
IC50 (CDK9–cyclin T; Lanthascreen, average, Extended Data Fig. 8, read-out: CDK9 IC50): > 10000 nM
IC50 (CDK9–cyclin T; Supplementary Table 2, read-out: Lanthascreen IC50 [nM] CDK9): > 10000 nM
Lanthascreen TR-FRET signal (raw ratio), sheet CDK9 (CDK9–cyclin T; compound 0.038147 nM): 0.01967 and 0.01921
Lanthascreen TR-FRET signal (raw ratio), sheet CDK9 (CDK9–cyclin T; compound 0.152588 nM): 0.02095 and 0.01844
Lanthascreen TR-FRET signal (raw ratio), sheet CDK9 (CDK9–cyclin T; compound 0.610352 nM): 0.02014 and 0.01923
Lanthascreen TR-FRET signal (raw ratio), sheet CDK9 (CDK9–cyclin T; compound 9.76563 nM): 0.02017 and 0.01981
Lanthascreen TR-FRET signal (raw ratio), sheet CDK9 (CDK9–cyclin T; compound 39.0625 nM): 0.02067 and 0.01823
Lanthascreen TR-FRET signal (raw ratio), sheet CDK9 (CDK9–cyclin T; compound 156.25 nM): 0.02063 and 0.01896
Lanthascreen TR-FRET signal (raw ratio), sheet CDK9 (CDK9–cyclin T; compound 625 nM): 0.01918 and 0.01876
Lanthascreen TR-FRET signal (raw ratio), sheet CDK9 (CDK9–cyclin T; compound 2500 nM): 0.01797 and 0.01674
Lanthascreen TR-FRET signal (raw ratio), sheet CDK9 (CDK9–cyclin T; compound 10000 nM): 0.01641 and 0.01561
IC50 (CDK12–cyclin K; Supplementary Table 2, read-out: Lanthascreen IC50 [nM] CDK12): 1320 nM
Lanthascreen raw signal, sheet CDK12 (CDK12–cyclin K; compound 0.038147 nM): 0.01422 and 0.01468
Lanthascreen raw signal, sheet CDK12 (CDK12–cyclin K; compound 0.152588 nM): 0.01335 and 0.01357
Lanthascreen raw signal, sheet CDK12 (CDK12–cyclin K; compound 0.610352 nM): 0.01416 and 0.01634
Lanthascreen raw signal, sheet CDK12 (CDK12–cyclin K; compound 9.76563 nM): 0.01407 and 0.01436
Lanthascreen raw signal, sheet CDK12 (CDK12–cyclin K; compound 39.0625 nM): 0.01347 and 0.01362
Lanthascreen raw signal, sheet CDK12 (CDK12–cyclin K; compound 156.25 nM): 0.01258 and 0.01228
Lanthascreen raw signal, sheet CDK12 (CDK12–cyclin K; compound 625 nM): 0.01036 and 0.01104
Lanthascreen raw signal, sheet CDK12 (CDK12–cyclin K; compound 2500 nM): 0.007943 and 0.008192
Lanthascreen raw signal, sheet CDK12 (CDK12–cyclin K; compound 10000 nM): 0.006259 and 0.005981
DC50 [1]: 109 nM
Structure (SMILES): CC[C@H](CO)Nc1nc(NCc2nc3cc(Cl)c(Cl)cc3[nH]2)c2ncn(-c3cnn(C)c3)c2n1 [DS22]
EC50 (HEK293T cells; Homo sapiens, HEK-293T, HEK293T viability, 72 h, compound alone, read-out: Cellular assays EC50): 935 nM
Toxicity rescue (HEK293T cells; MLN4924-mediated cytotoxicity rescue, 10 µM used where n.d.): 66%
